# Legend:
# [1] = system: Pulmonary Fibrosis Induced by Bleomycin; assay: Gross pathology of lungs, pulmonary fibrosis induced by bleomycin; assay type: in vivo, male SD rats; conditions: Test group 1: bleomycin 7.5 mg/kg alone; day 20
# Experimental: (§1) Bleomycin is used to produce disease-model animals of interstitial pneumonia. The bleomycin and 2,3,5-trimethylhydroquinone-1-hexyl ether (HTHQ) as the hydroquinone derivative represented by the general formula (1) described above of the present invention were simultaneously administered to male SD rats of 10 week old after birth to examine the effect of the action. The test groups consisted of the control group to which sterile saline was administered; test group 1 to which bleomycin (7.5 mg/kg body weight) alone was administered; test group 2 to which bleomycin (7.5 mg/kg body weight) and HTHQ (50 mg/kg body weight/day) were administered in combination; and test group 3 to which bleomycin (7.5 mg/kg body weight) and HTHQ (200 mg/kg body weight/day) were administered in combination.
# In test groups 1 to 3, bleomycin was orally administered in a single dose. In test groups 2 and 3, 2,3,5-trimethylhydroquinone-1-hexyl ether (HTHQ) was daily orally administered for 10 or 20 days starting from 24 h after the administration of bleomycin. In test group 1, olive oil, which was used as a solvent of HTHQ, was daily orally administered at 10 mL/kg/day starting from 24 h after the administration of bleomycin. The number of animals in each group was 16. […]
# [2] = system: Pulmonary Fibrosis Induced by Bleomycin; assay: Histopathologic examination of lungs, pulmonary fibrosis induced by bleomycin; assay type: in vivo, male SD rats; conditions: Test group 1: bleomycin 7.5 mg/kg alone
# Experimental: as §1
# (§2) In test groups 1 to 3, bleomycin was orally administered in a single dose. In test groups 2 and 3, 2,3,5-trimethylhydroquinone-1-hexyl ether (HTHQ) was daily orally administered for 10 or 20 days starting from 24 h after the administration of bleomycin. In test group 1, olive oil, which was used as a solvent of HTHQ, was daily orally administered at 10 mL/kg/day starting from 24 h after the administration of bleomycin. The number of animals in each group was 16. 8 animals of each group were sacrificed on days 10 and 20 after the administration of bleomycin and measurement of body weight, lung autopsy, histopathologic examination of lungs and bronchoalveolar lavage examination were conducted.
# The main lung lesions observed in the rats in test group 1 (the bleomycin-single administration group) on day 10 after the administration were the peribronchial and peribronchiola enlargement of alveoli, the hyperplasia of the alveolar wall, the infiltration of monocytes and lymphocytes in alveolar walls and interstitial tissue, and the exudation of alveolar macrophage into alveolar spaces. These lesions were alleviated in rats in test groups 2 and 3 (the HTHQ-administered groups) compared to the tissue in test group 1.
# The result of the histopathologic examination of lungs of the control group and the test groups on day 20 after the administration of bleomycin is shown in Table 1 below. “−” indicates “not found”, “+” indicates “mild”, “++” indicates “moderate”, and “+++” indicates “severe” in severity scores. In test group 1 (the bleomycin-single administration group), the hyperplasia and fibrosis of peribronchial and adjacent alveolar walls became remarkable compared to the tissue on day 10 after the administration and the morphology of alveolus almost disappeared due to the infiltration of lymphocytes and neutrophils. The alveolar macrophages infiltrated within alveolar spaces were buried in surrounding tissues.
# [3] = system: Pulmonary Fibrosis Induced by Bleomycin; assay: Bronchoalveolar lavage (BAL) examination, cell numbers, pulmonary fibrosis induced by bleomycin; assay type: in vivo, male SD rats
# Experimental: as §1, §2
# Bronchoalveolar lavage (BAL) examination was conducted on the rats in the control group and the test groups. When interstitial pneumonia developed, the infiltration of inflammatory cells occurs and thus the total cell number in BAL fluid increases. The total cell numbers on day 10 after the administration of bleomycin were as follows: 2×10^5 cells in the control group, 9×10^5 cells in test group 1 (the bleomycin-single administration group), 6.5×10^5 cells in test group 2 (the low-dose HTHQ-administered group, 50 mg/kg body weight), and 10.5×10^5 cells in test group 3 (the high-dose HTHQ-administered group, 200 mg/kg body weight), and thus the effect of HTHQ administration was not found on day 10 after the administration of bleomycin.
# When interstitial pneumonia developed, the infiltration of alveolar macrophages to interstitial tissue occurs and thus the alveolar macrophage number in BAL fluid increases. The alveolar macrophage numbers on day 10 after the administration of bleomycin were as follows: 1.45×10^5 cells in the control group, 4.5×10^5 cells in test group 1 (the bleomycin-single administration group), 1.99×10^5 cells in test group 2 (the low-dose HTHQ-administered group), and 3.24×10^5 cells in test group 3 (the high-dose HTHQ-administered group), and thus the effect of HTHQ administration was not found on day 10 after the administration of bleomycin. However, on day 20 after the administration, while the alveolar macrophage number of the bleomycin-single administration group was 5.5×10^5 cells, the alveolar macrophage number of the low-dose HTHQ-administered group was 3×10^5 cells and the alveolar macrophage number of the high-dose HTHQ-administered group was decreased to 2×10^5 cells.
# When interstitial pneumonia developed, the infiltration of inflammatory cells of neutrophils to interstitial tissue occurs and thus the neutrophil number in BAL fluid increases. The neutrophil numbers on day 10 after the administration of bleomycin were as follows: 1.04×10^4 cells in the control group, 2.28×10^5 cells in test group 1 (the bleomycin-single administration group), 1.44×10^5 cells in test group 2 (the low-dose HTHQ-administered group), and 5.83×10^5 cells in test group 3 (the high-dose HTHQ-administered group), and thus the effect of HTHQ was not found on day 10 after the administration of bleomycin. […]
# [4] = system: Pulmonary Fibrosis Induced by Bleomycin; assay: Body weight and relative weight of lungs, pulmonary fibrosis induced by bleomycin; assay type: in vivo, male SD rats
# Experimental: as §1, §2
# The body weight of the rats in the control group increased over time during the test period. […] The weight of the interstitial tissue of lungs tends to increase and the relative weight of lungs tends to rise when the tissue fibroses. […] Thus, it was expected that the degree of the progression of pulmonary fibrosis of the rats in test groups 2 and 3, to which HTHQ was administered, was less than the rats in test group 1.
# sputum excretion = assay: Sputum excretion action (phenol red excretion from trachea sections, method of Engler et al.); assay type: in vivo, male ICR mice; conditions: ambroxol 250 mg/kg oral single dose; relative to negative control; significant increase
# Experimental: The hydroquinone derivative of the present invention was orally administered to 8 week old male ICR mice in a single dose, and the sputum excretion action was evaluated according to the method of Engler et al. (Engler H, Szelenyi I, J.Pharmacol. Moth. 11, 151-157, 1984).
# Specifically, the test was conducted as follows. The test material was orally administered to the mice in the control group and the test groups, i.e., an aqueous solution of 2% gum arabic was administered to the mice in the negative control group, and 2,3,5-trimethylhydroquinone-1-hexyl ether (HTHQ), the test substance, was orally administered to the mice in the HTHQ-administered groups at 100 mg/kg body weight, 200 mg/kg body weight and 400 mg/kg body weight, respectively. Ambroxol (a product from Sigma-Aldrich) was orally administered to the mice in the ambroxol administered group at 250 mg/kg body weight. Here, ambroxol is a substance having expectoration action and has been selected as a positive control substance. 30 minutes after the oral administration of the test material, saline in which phenol red (a product from Sigma-Aldrich) was dissolved at a concentration of 0.05 g/mL was intraperitoneally administered at 15 mL/kg. Then, 30 minutes after the administration of phenol red, the mice were euthanized by inhalation of carbon dioxide, and the tracheae were extirpated. Given sites of the extirpated tracheae were cut into sections of fixed size to obtain trachea sections. The obtained trachea sections were added to centrifugation tubes, and 1 mL of saline was added there, and the mixture was sonicated using a ultrasonic washing machine for 15 minutes. After the centrifugation of 5 minutes at 10000 rpm, 0.5 mL of a upper layer solution was dispensed to the centrifugation tubes and 0.05 mL of 1 N sodium hydroxide was added to the tubes. After stirring with a vortex mixer, 0.2 mL of a sample was dispensed to a 96 well plate, and absorbance was measured at 546 nm using a micro plate reader (a product from BioTek Instruments, Inc). The amounts of phenol red excreted from the trachea sections of the mice in the control group and test groups were calculated by extrapolating the measured absorbance to the standard curve based on the absorbance of phenol red reference standard ([…], 2.3 and 1.2 ng/mL). The amounts of phenol red excreted from the trachea sections were substituted in the following formula to calculate the sputum excretion ability of the test material. The formula to calculate the sputum excretion ability is as follows: “sputum excretion ability(%)={(A/B)−1}×100” wherein A is the amounts of phenol red of the test material administered groups (an average) and B is the amount of phenol red of the negative control group (an average).
# [5] = Test group 1: bleomycin 7.5 mg/kg alone, day 10
# [6] = bleomycin 7.5 mg/kg alone, day 20
molecule,measurement,setting,value
bleomycin [reference compound],gross pathology of lungs,[1],delomorphous nodules as well as many dark red and light red ecchymoses were observed
same,histopathologic findings of lungs,[2]; day 10,pulmonary fibrosis has progressed
same,"Severity score: Alveolar space, Bleeding",[2]; day 20 after bleomycin,+
same,"Severity score: Alveolar space, Macrophage accumulation",[2]; day 20 after bleomycin,+++
same,"Severity score: Alveolar space, Protein exudation",[2]; day 20 after bleomycin,+++
same,"Severity score: Alveolar wall, Fibroblast accumulation",[2]; day 20 after bleomycin,+++
same,"Severity score: Alveolar wall, Fibrosis of interstitial tissue",[2]; day 20 after bleomycin,+++
same,"Severity score: Alveolar wall, Interstitial edema",[2]; day 20 after bleomycin,+
same,"Severity score: Alveolar wall, Mononuclear cell infiltration",[2]; day 20 after bleomycin,+++
same,"Severity score: Circumvascular region, Perivascular edema",[2]; day 20 after bleomycin,+
same,"Severity score: Circumvascular region, Plasma cell infiltration",[2]; day 20 after bleomycin,+
same,"Severity score: Peribronchial and peribronchiolar regions, Fibrosis of interstitial tissue",[2]; day 20 after bleomycin,+++
same,"Severity score: Peribronchial and peribronchiolar regions, Lymphoid follicle hyperplasia",[2]; day 20 after bleomycin,++
same,"Severity score: Type II alveolar epithelial cell, Adenomatous hyperplasia",[2]; day 20 after bleomycin,++
same,"Severity score: Type II alveolar epithelial cell, Atypia and dysplasia",[2]; day 20 after bleomycin,++
same,alveolar macrophage number in BAL fluid,[3]; [5],4.5×10^5 cells
same,lymphocyte number in BAL fluid,[3]; [5],2.72×10^5 cells
same,neutrophil number in BAL fluid,[3]; [5],2.28×10^5 cells
same,total cell number in BAL fluid,[3]; [5],9×10^5 cells
same,alveolar macrophage number in BAL fluid,[3]; [6],5.5×10^5 cells
same,lymphocyte number in BAL fluid,[3]; [6],2.09×10^5 cells
same,neutrophil number in BAL fluid,[3]; [6],4.97×10^5 cells
same,total cell number in BAL fluid,[3]; [6],12.8×10^5 cells
same,body weight,"[4]; test groups 1 to 3, bleomycin 7.5 mg/kg single dose, during the test period",gradually decreased
same,relative weight of lungs,"[4]; test groups 1 to 3, bleomycin 7.5 mg/kg, compared to the control group, p<0.01",significantly increased
"Nc1c(Br)cc(Br)cc1CN[C@H]1CC[C@H](O)CC1 [ambroxol, Ambroxol, reference compound]",sputum excretion ability,sputum excretion,41.1%

# Reference: US20180049996A1, “THERAPEUTIC AGENT FOR CHRONIC RESPIRATORY DISEASE AND COMPOSITION FOR INHIBITING CARDIAC FIBROSIS” (NIPPON HYPOX LABORATORIES INCORPORATED, priority 2015, published 2018)
